We go through six compounds from patent publication US8106059B2, “Substituted pyrazines that inhibit protease cathepsin S and HCV replication” (ViroBay, Inc., priority 2007, dated 2012).

Where two headings read alike, the source gives them in different places.

In assay [1] the test system is HCV replicon-containing cells (Huh7/Clone A). As to the kind of experiment: HCV replicon assay. The format is cell-based, Hepatitis C virus. Particulars: at 25 μM, 48 hours. The source says: The HCV replicon assay is a cell-culture system that mimics in vivo HCV replication and provides a system to study HCV replication in vitro. It was created by transfecting cloned viral RNA derived from a consensus HCV genomic sequence into human Huh7 hepatoma cells that are semi-permissive for viral RNA production (Lohmann V., Korner F., Koch J.-O., Herian U., Theilmann L. and Bartenschlager R. (1999). Replication of subgenomic Hepatitis C virus RNAs in a hepatoma cell line. Science 285, 110-113 and Blight K. J., Kolykhalov A. A. and Rice C. M. (2000). Efficient initiation of HCV RNA Replication in cell culture. Science 290, […]). These transfected cell lines contain a subgenomic HCV RNA genome that includes (1) the HCV 5′NTR fused to 12 amino acids of the capsid coding region, (2) the neomycin phosphotransferase gene (Neo) as a selectable marker, (3) the internal ribosome entry site (IRES) from encephalomyocarditis virus (EMCV) that directs translation of HCV non-structural proteins (variously NS2 or NS3 to NS5B), and (4) the 3′ NTR. Replicon-containing cells autonomously and persistently replicate HCV RNA that can be measured quantitatively by real-time qPCR. Therefore, the replicon system facilitates quantitative assessment of anti-viral activity by monitoring changes in HCV RNA replication in a cell-based assay.
HCV replicon-containing cells (Huh7/Clone A) were routinely maintained in Clone A growth medium (DMEM medium [Invitrogen], supplemented with 10% Fetal Bovine Serum, 1% Non Essential Amino Acids and 1 g/L G418). Test compounds were dissolved in dimethylsulfoxide (DMSO) to make 200× stock solutions for all doses prior to treatment.
For the HCV replicon assay, Huh7/Clone A cells were trypsinized from culture flasks, seeded in 1 ml of Clone A growth medium without G418 at 4×10^4 cells per well in 24-well plates and incubated at 37° C. in a humidified CO2 (5%) incubator overnight. Following overnight incubation, compound solutions were added into wells in the same volume (5 μl of 200× compound stock per well) to give a final DMSO concentration of 0.5%. Three wells on each plate supplemented with 5 μl of DMSO served as untreated controls. […]
Total RNA eluted in 130 μl of RNase-free dH2O was quantitated by the RiboGreen Assay according to the supplier's protocol (Molecular Probe). […] RNA samples in the black microplate were mixed with 95 μl of diluted RiboGreen reagent (1:250 dilution in TE buffer) and sample fluorescence was measured using a fluorescence microplate reader at standard fluorescein wavelengths (excitation ˜480 nm, emission ˜520 nm). […]
TaqMan quantitative PCR (RT-qPCR) was used to quantitate the amount of HCV replicon RNA in each sample. […]

The target in assay [2] is recombinant human cathepsin S (Homo sapiens, UniProt P25774). As to the kind of experiment: Cathepsin S enzyme activity assay. Type of assay: biochemical. Particulars: 10 uM Z-Leu-Arg-AMC, pH 4.5, 25° C. As to the method: The cysteine protease inhibitor E-64 is assayed in parallel as a positive control.
Human recombinant cathepsin S is incubated with compounds or vehicle (final concentration=1% DMSO vehicle) in the presence of peptide substrate which is 10 uM Z-Leu-Arg-AMC. Compounds are preincubated with the enzyme for 15 minutes at 25° C. and the reaction started by the addition of substrate. Incubation with substrate proceeds for 30 minutes at 25° C. Incubation buffer is 20 mM CH3COONa, pH 4.5, 2.5 mM DTT, 0.05 M NaCl. Cathepsin S-mediated substrate cleavage is quantified using spectofluorimetric quantitation of AMC.

[3] abbreviates: recombinant human cathepsin S, read-out: Cathepsin S IC50.
Setting [4] is: Cathepsin S IC50, recombinant human cathepsin S.

recombinant human cathepsin S, sequence (P25774 115-331): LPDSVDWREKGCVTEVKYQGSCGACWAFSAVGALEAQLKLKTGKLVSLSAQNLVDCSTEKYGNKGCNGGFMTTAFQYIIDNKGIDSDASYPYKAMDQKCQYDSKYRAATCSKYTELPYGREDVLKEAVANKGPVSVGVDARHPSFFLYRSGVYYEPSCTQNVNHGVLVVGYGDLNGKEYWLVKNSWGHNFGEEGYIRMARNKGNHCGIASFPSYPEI

With `CCC[C@H](NC(=O)[C@@H]1[C@H]2CCC[C@H]2CN1C(=O)[C@@H](NC(C(NC(=O)c1cnccn1)C1CCCCC1)C(F)(F)F)C(C)(C)C)C(=O)C(=O)NC1CC1` (single isomer, unassigned) [Formula I isomer A], in assay [1], the “inhibition of HCV replicon RNA” value came out at 41%. Besides, the IC50 in assay [2] (setting [3]) stood at 4.1 nM.
On to `CCC[C@H](NC(=O)[C@@H]1[C@H]2CCC[C@H]2CN1C(=O)[C@@H](NC(C(NC(=O)c1cnccn1)C1CCCCC1)C(F)(F)F)C(C)(C)C)C(=O)C(=O)NC1CC1` (single isomer, unassigned) [Formula I isomer B], for which the “inhibition of HCV replicon RNA” value in assay [1] was found to be 33%. The IC50 in assay [2] (setting [4]) came out at 0.6 nM.
In the same order, the values of `CCC[C@H](NC(=O)[C@@H]1[C@H]2CCC[C@H]2CN1C(=O)[C@@H](NC(C(NC(=O)c1cnccn1)C1CCCCC1)C(F)(F)F)C(C)(C)C)C(=O)C(=O)NC1CC1` (single isomer, unassigned) [Formula I isomer C] are 34% and 2 nM.
In the same order, the values of `CCC[C@H](NC(=O)[C@@H]1[C@H]2CCC[C@H]2CN1C(=O)[C@@H](NC(C(NC(=O)c1cnccn1)C1CCCCC1)C(F)(F)F)C(C)(C)C)C(=O)C(=O)NC1CC1` (single isomer, unassigned) [Formula I isomer D] are 29% and 0.6 nM.
`CCC[C@H](NC(=O)[C@@H]1[C@H]2CCC[C@H]2CN1C(=O)[C@@H](NC(=O)[C@@H](NC(c1cnccn1)C(F)(F)F)C1CCCCC1)C(C)(C)C)C(=O)C(=O)NC1CC1` (single isomer, unassigned) [Formula I isomer E]: the IC50 in assay [2] (setting [3]) came to 1.8 nM.
With `CCC[C@H](NC(=O)[C@@H]1[C@H]2CCC[C@H]2CN1C(=O)[C@@H](NC(=O)[C@@H](NC(c1cnccn1)C(F)(F)F)C1CCCCC1)C(C)(C)C)C(=O)C(=O)NC1CC1` (single isomer, unassigned) [Formula I isomer F], the IC50 in assay [2] (setting [3]) was found to be 1.4 nM.
